# In paper PMC7392676 (BMC Microbiology, 2020):
# Assays:
# Erwinia amylovora = details: cited from earlier work
# Xff strain Temecula = format: cell-based, Xylella fastidiosa subsp. fastidiosa
# [1] = system: Xanthomonas axonopodis pv. vesicatoria; details: cited from earlier work
# [2] = system: Pseudomonas syringae pv. syringae; details: cited from earlier work
# Xf = details: cited from earlier work
substance,measurement,setting,value
KDWEHLKDWEHLKDWEHL-OH [tag54],MIC Ea,Erwinia amylovora,> 100 µM
same,Log N0/N (log reduction of Xff cell viability),Xff strain Temecula,0 ± 0 log
same,antimicrobial activity against Xff cells (in words),Xff strain Temecula,did not show antimicrobial activity
same,MIC Xav,[1],> 100 µM
same,MIC Psa,[2],> 100 µM
magainin II,MIC or MBC against Xf,Xf,8 to 64 µg/mL
dermaseptin,MIC or MBC against Xf,Xf,8 to 32 µg/mL
gomesin,MIC or MBC against Xf,Xf,4.5 to 9 µg/mL
